Data set [1] relates to patients afflicted with congestive heart failure. The note with it: spironolactone 100 mg/day coadministered with an ACE inhibitor; van Vliet et al 1993; cited from earlier work.
Data set [2] relates to patients with symptomatic heart failure. Nature of the data set: Human clinical trial: neurohormones (urinary aldosterone, plasma renin activity, N-terminal ANF). The note with it: 12 week visit, dose response (p = 0.002).
For data set [3] the test system is unchanged. Nature of the data set: Human clinical trial: cardiac assessments (sodium retention score, NYHA class) and changes in patient therapy. The note with it: spironolactone groups vs placebo; difference not statistically significant. The class given is in vivo, humans. The source says:
(§1) Concurrent medication within the past 30 days. • 2. 12-lead ECG • 3. […] Signs and symptoms within the past 30 days.
(§2) All statistical methods were two-sided.

Data set [4] has the same test system. Nature of the data set: Human clinical trial: weight and vital signs. The note with it: 75 mg dose group, Day 9 and Week 4 visits. The class given is in vivo, humans. On the procedure: as §1
Patients were evaluated 9 days after beginning study medication.
as §2

Data set [5] shares this test system. Nature of the data set: Human clinical trial: hospitalizations and deaths.

Consider `CC(=O)S[C@@H]1CC2=CC(=O)CC[C@]2(C)[C@H]2CC[C@@]3(C)[C@@H](CC[C@@]34CCC(=O)O4)[C@H]12` [Spironolactone, 17-hydroxy-7α-mercapto-3-oxo-17α-pregn-4-ene-21-carboxylic acid γ-lactone acetate], for which the “patients in whom the treatment was highly effective” value in data set [1] is given as 13 of 16. The “Urinary aldosterone excretion, change from baseline” value in data set [2] is listed as “Greater increases were seen at higher doses of spironolactone”. Further, the “NYHA Class” value in data set [3] is reported as “trend toward improvement”. The “changes from baseline in body weight” value in data set [4] is “more weight loss than other patients”. The “patients died within 30 days after the study was completed” value in data set [5] (previously at the 50 mg dose) is reported as “Three”. For the same compound, the “Hospitalizations, percent of patients” value was 7.3% in data set [5] (spironolactone 12.5 mg), 6.6% in data set [5] (spironolactone 25 mg), 27.6% in data set [5] (spironolactone 50 mg) and 14.6% in data set [5] (spironolactone 75 mg).

(Values after patent EP0808172B1, “COMBINATION OF ANGIOTENSIN CONVERTING ENZYME INHIBITOR AND ALDOSTERONE ANTAGONIST FOR THE TREATMENT OF VENTRICULAR HYPERTROPHY” (priority 1995, dated 1996).)
